Measured values taken from patent US10188634B2, “3-(3H-imidazo[4,5-C]pyridin-2-yl)-1 H-pyrazolo[4,3-B]pyridines and therapeutic uses thereof” (Samumed, LLC, priority 2015, dated 2019).

Key:
[1] = tested on: Wnt activity (Sp5-Luc reporter, human Sp5 promoter with eight TCF/LEF binding sites) in SW480 colon carcinoma cells; experiment: Screening assay for Wnt activity: Sp5-Luc reporter gene assay in SW480 cells; type: cell-based; conditions: for inhibition at 10 µM: read-out: percent inhibition at 10 μM (given for EC50 of >10 μM); for EC50: 10-point dose-response starting from 10 μM, overnight incubation
Excerpt: The screening assay for Wnt activity is described as follows. Reporter cell lines can be generated by stably transducing cancer cell lines (e.g., colon cancer) or primary cells (e.g., IEC-6 intestinal cells) with a lentiviral construct that includes a Wnt-responsive promoter driving expression of the firefly luciferase gene.
SW480 colon carcinoma cells were transduced with a lentiviral vector expressing luciferase with a human Sp5 promoter consisting of a sequence of eight TCF/LEF binding sites. SW480 cells stably expressing the Sp5-Luc reporter gene and a hygromycin resistance gene were selected by treatment with 150 μg/mL of hygromycin for 7 days. These stably transduced SW480 cells were expanded in cell culture and used for all further screening activities. Each compound was dissolved in DMSO as a 10 mM stock and used to prepare compound source plates. Serial dilution (1:3, 10-point dose-response curves starting from 10 μM) and compound transfer was performed using the ECHO 550 (Labcyte, Sunnyvale, Calif.) into 384-well white solid bottom assay plates (Greiner Bio-One) with appropriate DMSO backfill for a final DMSO concentration of 0.1%. For Sp5-Luc reporter gene assays, the cells were plated at 4,000 cells/well in 384-well plates with medium containing 1% fetal bovine serum and incubated overnight at 37° C. and 5% CO2. Following incubation, 20 μl of BrightGlo luminescence reagent (Promega) was added to each well of the 384-well assay plates. The plates were placed on an orbital shaker for 2 min and then luminescence was quantified using the Envision (Perkin Elmer) plate reader. Readings were normalized to DMSO only treated cells, and normalized activities were utilized for EC50 calculations using the dose-response log (inhibitor) vs. response -variable slope (four parameters) nonlinear regression feature available in GraphPad Prism 5.0 (or Dotmatics). For EC50 of >10 μM, the percent inhibition at 10 μM is provided.

IL-6 in THP-1 cells = experiment: Inhibition of IL-6 in LPS-stimulated THP-1 human monocyte cells (HTRF); type: cell-based; conditions: IL-6 HTRF; for EC50: 500 ng/mL LPS, 22 hours; for inhibition at 10 µM: LPS, read-out: percent inhibition in brackets (given for EC50 >10 μM)
Procedure: Human Monocyte Cell Culture: Human monocyte cell line (THP-1 cells; Catalog # TIB-202, ATCC, Manassas, Va.) were cultured in Roswell Park Memorial Institute (RPMI) 1640 Medium (Catalog #21870-100, Buffalo, N.Y.) with 1% L-glutamine, 1% HEPES, 1% Sodium Pyruvate, 2% Sodium Bicarbonate supplemented with 100 units/mL penicillin, 50 μg/mL streptomycin, 2-mercaptoethanol (0.05 mM) [basal medium] and 10% fetal bovine serum (Catalog #16140089, Life Technologies, Carlsbad, Calif.) at 37° C. and 5% CO2.
Compound Screening: THP-1 cells were cultured in basal media with 1% FBS for 24 hours before the start of the assay. Each compound was dissolved in DMSO as a 10 mM stock and used to prepare compound source plates. Serial dilution (1:3, 10-point dose-response curves starting from 10 μM) and compound transfer was performed using the ECHO 550 (Labcyte, Sunnyvale, Calif.) into 384-well white low volume assay plates (Greiner Bio-One) with appropriate DMSO backfill for a final DMSO concentration of 0.1%. THP-1 cells were plated at 5000 cells/well in the 384-well plates and incubated at 37° C. for 2 h. 500 ng/mL of LPS was added after 2 hours and cells were incubated for another 22 hours at 37° C. Plates were spun in a centrifuge for 1 minute at […] and a mixture of anti-IL6 XL665, and anti-IL6 Cryptate diluted in reconstitution buffer (Cisbio Inc.) was added to each well. Following incubation for 3 hrs at room temperature, Homogeneous Time-Resolved Fluorescence (HTRF) was measured using the Envision (Perkin Elmer) at 665 nm and […]. The ratio of fluorescence at 665 nm to 620 nm was used as a readout for IL6 quantification. All samples were processed in duplicate. Readings were normalized to DMSO treated cells and normalized activities were utilized for EC50 calculations using the dose-response log (inhibitor) vs. response -variable slope (four parameters) nonlinear regression feature available in GraphPad Prism 5.0 (or Dotmatics). For EC50 of >10 μM, the percent inhibition at 10 μM is provided.

SMILES | EC50 [1] [µM] | EC50 (IL-6 in THP-1 cells) [µM] | inhibition at 10 µM [1] [%] | inhibition at 10 µM (IL-6 in THP-1 cells) [%]
CCC(=O)Nc1cncc(-c2ccc3[nH]nc(-c4nc5c(-c6cccc(F)c6)cncc5[nH]4)c3n2)c1 [Compound 1, N-(5-(3-(7-(3-Fluorophenyl)-3H-imidazo[4,5-c]pyridin-2-yl)-1H-pyrazolo[4,3-b]pyridin-5-yl)pyridin-3-yl)propionamide] | > 10 | > 10 | 12.3 | 25.8
CC(C)CC(=O)Nc1cncc(-c2ccc3[nH]nc(-c4nc5c(-c6cccc(F)c6)cncc5[nH]4)c3n2)c1 [Compound 2, N-(5-(3-(7-(3-Fluorophenyl)-3H-imidazo[4,5-c]pyridin-2-yl)-1H-pyrazolo[4,3-b]pyridin-5-yl)pyridin-3-yl)-3-methylbutanamide] | > 10 | > 10 | 43 | 25.4
Fc1cccc(-c2cncc3[nH]c(-c4n[nH]c5ccc(-c6ccncc6)nc45)nc23)c1 [Compound 18, 3-(7-(3-Fluorophenyl)-3H-imidazo[4,5-c]pyridin-2-yl)-5-(pyridin-4-yl)-1H-pyrazolo[4,3-b]pyridine] | > 10 | > 10 | 14 | 8.6
O=C(Nc1cncc(-c2ccc3[nH]nc(-c4nc5c(-c6ccc(F)cc6)cncc5[nH]4)c3n2)c1)C1CCC1 [Compound 49, N-(5-(3-(7-(4-Fluorophenyl)-3H-imidazo[4,5-c]pyridin-2-yl)-1H-pyrazolo[4,3-b]pyridin-5-yl)pyridin-3-yl)cyclobutanecarboxamide] | > 10 | > 10 | 44 | 37.7
Fc1ccc(-c2cncc3[nH]c(-c4n[nH]c5ccc(-c6cncnc6)nc45)nc23)cc1 [Compound 55, 3-(7-(4-Fluorophenyl)-3H-imidazo[4,5-c]pyridin-2-yl)-5-(pyrimidin-5-yl)-1H-pyrazolo[4,3-b]pyridine] | > 10 | > 10 | 18 | 13.4
Nc1cncc(-c2ccc3[nH]nc(-c4nc5c(-c6ccccc6F)cncc5[nH]4)c3n2)c1 [Compound 59, 5-(3-(7-(2-Fluorophenyl)-3H-imidazo[4,5-c]pyridin-2-yl)-1H-pyrazolo[4,3-b]pyridin-5-yl)pyridin-3-amine] | > 10 | 0.094 | 7 | –
CC(C)C(=O)Nc1cncc(-c2ccc3[nH]nc(-c4nc5c(-c6ccccc6F)cncc5[nH]4)c3n2)c1 [Compound 65, N-(5-(3-(7-(2-fluorophenyl)-3H-imidazo[4,5-c]pyridin-2-yl)-1H-pyrazolo[4,3-b]pyridin-5-yl)pyridin-3-yl)isobutyramide] | > 10 | > 10 | 1 | 28.2
CC(C)(C)CC(=O)Nc1cncc(-c2ccc3[nH]nc(-c4nc5c(-c6ccccc6F)cncc5[nH]4)c3n2)c1 [Compound 72, N-(5-(3-(7-(2-fluorophenyl)-3H-imidazo[4,5-c]pyridin-2-yl)-1H-pyrazolo[4,3-b]pyridin-5-yl)pyridin-3-yl)-3,3-dimethylbutanamide] | > 10 | > 10 | 5.7 | 29.8
O=C(Nc1cncc(-c2ccc3[nH]nc(-c4nc5c(-c6ccccc6F)cncc5[nH]4)c3n2)c1)C1CCCC1 [Compound 78, N-(5-(3-(7-(2-Fluorophenyl)-3H-imidazo[4,5-c]pyridin-2-yl)-1H-pyrazolo[4,3-b]pyridin-5-yl)pyridin-3-yl)cyclopentanecarboxamide] | > 10 | > 10 | 6.6 | 40.4
c1cncc(-c2ccc3[nH]nc(-c4nc5c(-c6cccnc6)cncc5[nH]4)c3n2)c1 [Compound 88, 5-(Pyridin-3-yl)-3-(7-(pyridin-3-yl)-3H-imidazo[4,5-c]pyridin-2-yl)-1H-pyrazolo[4,3-b]pyridine] | > 10 | > 10 | 28 | 13.9

Continued, in another order:

EC50 [1] [µM] | EC50 (IL-6 in THP-1 cells) [µM] | SMILES | inhibition at 10 µM [1] [%] | inhibition at 10 µM (IL-6 in THP-1 cells) [%]
> 10 | > 10 | CC(C)C(=O)Nc1cncc(-c2ccc3[nH]nc(-c4nc5c(-c6cccnc6)cncc5[nH]4)c3n2)c1 [Compound 93, N-(5-(3-(7-(Pyridin-3-yl)-3H-imidazo[4,5-c]pyridin-2-yl)-1H-pyrazolo[4,3-b]pyridin-5-yl)pyridin-3-yl)isobutyramide] | 18.3 | 18
> 10 | 0.03 | c1ccc(CNCc2cncc(-c3ccc4[nH]nc(-c5nc6c(-c7cccnc7)cncc6[nH]5)c4n3)c2)cc1 [Compound 108, N-Benzyl-1-(5-(3-(7-(pyridin-3-yl)-3H-imidazo[4,5-c]pyridin-2-yl)-1H-pyrazolo[4,3-b]pyridin-5-yl)pyridin-3-yl)methanamine] | 5.3 | –
> 10 | > 10 | Cc1ccncc1-c1ccc2[nH]nc(-c3nc4c(-c5ccncc5)cncc4[nH]3)c2n1 [Compound 117, 5-(4-Methylpyridin-3-yl)-3-(7-(pyridin-4-yl)-3H-imidazo[4,5-c]pyridin-2-yl)-1H-pyrazolo[4,3-b]pyridine] | 23.1 | 43.5
> 10 | > 1 | CCCC(=O)Nc1cncc(-c2ccc3[nH]nc(-c4nc5c(-c6ccncc6)cncc5[nH]4)c3n2)c1 [Compound 129, N-(5-(3-(7-(Pyridin-4-yl)-3H-imidazo[4,5-c]pyridin-2-yl)-1H-pyrazolo[4,3-b]pyridin-5-yl)pyridin-3-yl)butyramide] | 0 | 18.7
> 10 | > 10 | c1cc(-c2ccc3[nH]nc(-c4nc5c(-c6ccncc6)cncc5[nH]4)c3n2)ccn1 [Compound 130, 5-(pyridin-4-yl)-3-(7-(pyridin-4-yl)-3H-imidazo[4,5-c]pyridin-2-yl)-1H-pyrazolo[4,3-b]pyridine] | 9.8 | 29.3
> 10 | > 1 | O=C(Nc1cncc(-c2ccc3[nH]nc(-c4nc5c(-c6ccncc6)cncc5[nH]4)c3n2)c1)C1CCCCC1 [Compound 135, N-(5-(3-(7-(pyridin-4-yl)-3H-imidazo[4,5-c]pyridin-2-yl)-1H-pyrazolo[4,3-b]pyridin-5-yl)pyridin-3-yl)cyclohexanecarboxamide] | 1.2 | 26.6
> 10 | > 10 | CCNCc1cncc(-c2ccc3[nH]nc(-c4nc5c(-c6ccccn6)cncc5[nH]4)c3n2)c1 [Compound 146, N-((5-(3-(7-(Pyridin-2-yl)-3H-imidazo[4,5-c]pyridin-2-yl)-1H-pyrazolo[4,3-b]pyridin-5-yl)pyridin-3-yl)methyl)ethanamine] | 14.2 | 20.1
> 10 | > 10 | O=C(Nc1cncc(-c2ccc3[nH]nc(-c4nc5c(-c6ccccn6)cncc5[nH]4)c3n2)c1)c1ccccc1 [Compound 151, N-(5-(3-(7-(Pyridin-2-yl)-3H-imidazo[4,5-c]pyridin-2-yl)-1H-pyrazolo[4,3-b]pyridin-5-yl)pyridin-3-yl)benzamide] | 23.9 | 20.3
